Assay results taken from BindingDB's records for patent US10913744 (Dana-Farber Cancer Institute, 2021).

How the values were obtained:
[1] = biological target: T1, Leucine-rich repeat serine/threonine-protein kinase 2 [1326-2527,G2019S] (Homo sapiens, UniProt Q5S007, G2019S); assay: Enzyme Assay
T1 construct: 1326-2527
Procedure: (§1) Samples were washed extensively and the incorporation of [γ-32P]ATP into Nictide was quantified by Cerenkov counting. IC50 values were calculated with GraphPad Prism using non-linear regression analysis.

[2] = biological target: T2, Leucine-rich repeat serine/threonine-protein kinase 2 [1326-2527] (Homo sapiens, UniProt Q5S007); assay: Enzyme Assay
T2 construct: 1326-2527
T2 sequence (Q5S007 whole entry): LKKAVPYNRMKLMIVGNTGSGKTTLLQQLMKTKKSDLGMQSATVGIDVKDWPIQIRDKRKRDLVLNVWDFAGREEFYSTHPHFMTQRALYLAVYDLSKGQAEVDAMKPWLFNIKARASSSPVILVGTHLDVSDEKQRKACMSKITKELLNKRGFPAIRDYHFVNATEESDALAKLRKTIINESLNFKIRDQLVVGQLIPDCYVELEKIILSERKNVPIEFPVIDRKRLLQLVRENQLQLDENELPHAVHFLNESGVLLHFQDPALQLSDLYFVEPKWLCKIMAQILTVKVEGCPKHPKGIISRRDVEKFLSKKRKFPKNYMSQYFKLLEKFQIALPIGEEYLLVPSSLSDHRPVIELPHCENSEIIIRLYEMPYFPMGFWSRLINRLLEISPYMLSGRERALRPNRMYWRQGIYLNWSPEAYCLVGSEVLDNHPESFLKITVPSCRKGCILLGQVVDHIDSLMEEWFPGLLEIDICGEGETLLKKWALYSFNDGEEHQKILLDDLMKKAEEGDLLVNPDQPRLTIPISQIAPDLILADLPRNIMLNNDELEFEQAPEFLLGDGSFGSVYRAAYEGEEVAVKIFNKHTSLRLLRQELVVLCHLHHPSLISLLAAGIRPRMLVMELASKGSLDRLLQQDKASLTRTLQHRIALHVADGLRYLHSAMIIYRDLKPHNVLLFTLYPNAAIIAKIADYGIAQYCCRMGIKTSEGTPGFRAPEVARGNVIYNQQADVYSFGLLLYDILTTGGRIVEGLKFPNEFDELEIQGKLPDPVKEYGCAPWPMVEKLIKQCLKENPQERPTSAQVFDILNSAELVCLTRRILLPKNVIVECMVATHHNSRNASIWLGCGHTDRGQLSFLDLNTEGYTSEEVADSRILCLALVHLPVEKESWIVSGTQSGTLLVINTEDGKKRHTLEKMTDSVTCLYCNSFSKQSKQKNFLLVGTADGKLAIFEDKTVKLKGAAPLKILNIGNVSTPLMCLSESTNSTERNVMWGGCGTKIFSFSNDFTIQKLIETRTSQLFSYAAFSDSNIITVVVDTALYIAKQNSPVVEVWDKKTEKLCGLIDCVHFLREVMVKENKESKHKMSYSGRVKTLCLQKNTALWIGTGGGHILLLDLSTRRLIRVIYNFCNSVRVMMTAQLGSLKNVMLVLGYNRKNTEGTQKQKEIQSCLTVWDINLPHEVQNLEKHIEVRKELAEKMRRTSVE
Procedure: as §1

T1 sequence (Q5S007 1326-2527 G2019S): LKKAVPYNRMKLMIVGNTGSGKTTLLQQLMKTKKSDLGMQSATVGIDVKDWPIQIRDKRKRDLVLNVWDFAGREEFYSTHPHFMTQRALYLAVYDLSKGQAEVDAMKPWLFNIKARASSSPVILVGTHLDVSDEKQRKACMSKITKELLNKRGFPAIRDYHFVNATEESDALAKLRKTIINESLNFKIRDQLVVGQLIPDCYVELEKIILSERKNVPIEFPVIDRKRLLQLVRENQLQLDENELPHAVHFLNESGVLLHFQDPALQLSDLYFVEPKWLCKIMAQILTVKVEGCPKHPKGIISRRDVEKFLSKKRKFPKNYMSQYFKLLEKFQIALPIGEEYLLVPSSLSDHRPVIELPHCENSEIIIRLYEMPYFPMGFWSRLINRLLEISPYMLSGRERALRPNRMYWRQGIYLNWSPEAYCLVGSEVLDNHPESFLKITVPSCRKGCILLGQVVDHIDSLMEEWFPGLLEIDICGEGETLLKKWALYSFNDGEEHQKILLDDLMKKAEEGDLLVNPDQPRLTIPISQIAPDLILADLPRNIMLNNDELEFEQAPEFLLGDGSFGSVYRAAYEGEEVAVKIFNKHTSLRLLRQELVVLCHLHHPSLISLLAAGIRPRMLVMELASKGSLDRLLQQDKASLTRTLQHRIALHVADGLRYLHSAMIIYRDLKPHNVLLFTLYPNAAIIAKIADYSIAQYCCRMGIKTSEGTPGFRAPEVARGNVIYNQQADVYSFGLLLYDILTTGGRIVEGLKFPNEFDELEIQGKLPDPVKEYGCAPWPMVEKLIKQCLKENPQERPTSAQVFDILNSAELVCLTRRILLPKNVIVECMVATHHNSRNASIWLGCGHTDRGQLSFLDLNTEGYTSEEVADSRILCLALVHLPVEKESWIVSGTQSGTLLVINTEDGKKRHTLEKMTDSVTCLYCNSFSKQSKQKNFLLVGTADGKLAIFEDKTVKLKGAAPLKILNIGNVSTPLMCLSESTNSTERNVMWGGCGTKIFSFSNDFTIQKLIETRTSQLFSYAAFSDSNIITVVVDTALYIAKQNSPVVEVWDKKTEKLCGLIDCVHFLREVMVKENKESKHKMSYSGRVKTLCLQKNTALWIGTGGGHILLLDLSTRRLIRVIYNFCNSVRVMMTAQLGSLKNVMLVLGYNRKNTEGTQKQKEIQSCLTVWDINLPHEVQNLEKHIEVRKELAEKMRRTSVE

CNc1nc(Nc2ccc(C(=O)N3CCOCC3)cc2OC)nc2[nH]ccc12 [US10913744, Compound 8]
IC50 [1]: 5.1 nM | IC50 [2]: 2.6 nM
